Test results published in US10174097B2, “Specific A-beta species-binding peptides for the therapy and/or diagnosis of Alzheimer's dementia” (Forschungszentrum Juelich GmbH, priority 2015, dated 2019).
Entries after “also recorded” stand apart in the source; their conditions may differ. Where a SMILES comes first, the peptide text is derived from it. [ ]: non-standard residue; d: D form. dPhe(4-F) = N[C@H](Cc1ccc(F)cc1)C(=O)O

Assays:
[1] = system: SH-SY5Y cells; experiment: MTT assay on SH-SY5Y cells without Abeta co-incubation; type: cell-based; conditions: FIG. 4a
Description: (§1) No noteworthy toxicity of the peptides according to the invention in therapeutically relevant concentrations was established in the MTT assay on SH-SY5Y cells known to a person skilled in the art (FIG. 4). […] Based on current knowledge, Abeta oligomer is the toxic species.
(§2) The significances are based on the respective concentration with D3 (* p≤0.05; ** p≤0.01; *** p≤0.001; n. s. not significant).

[2] = biological target: T1, Abeta fibrils (Homo sapiens, UniProt P05067); experiment: ThT assay, formation of ThT positive Abeta fibrils; type: biochemical; conditions: for ThT fluorescence during the entire measuring time period: 48 hours, co-incubation with Abeta, FIG. 3
T1 construct: Pre-incubated Abeta was co-incubated with the peptides
T1 sequence (P05067 672-713 limits assumed): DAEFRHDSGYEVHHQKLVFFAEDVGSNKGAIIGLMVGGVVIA

[3] = biological target: T2, Abeta monomers (Homo sapiens, UniProt P05067); experiment: Peptide microarray, binding of FITC Abeta monomers to immobilized peptides; conditions: for Binding specificity monomer to fibrils: quotient binding signal to monomers / binding signal to fibrils; for Binding specificity monomer to oligomer: quotient binding signal to monomers / binding signal to oligomers
T2 construct: incubate with FITC Abeta monomers, oligomers, fibrils and FITC for 1 hour at room temperature
T2 sequence (P05067 672-713 limits assumed): as above
Experimental: (§3) The procedure for identifying peptides that bind specifically to amyloid beta monomer or specifically to amyloid beta oligomers and for determining the binding specificity of peptides within the meaning of the present invention can thus be as follows. Peptide microarrays comprising various peptides immobilized on a surface, such as derivatives of D3, are each incubated with different species of Abeta (such as monomers, oligomers and fibrils) labeled with a fluorescent dye. A peptide microarray is incubated with only the fluorescent dye to serve as the control. So as to ensure the reproducibility of the results, the incubation of the peptide microarrays can be carried out at least three times for each species. The binding of the fluorescence-labeled Abeta to the immobilized peptides is detected by way of the fluorescent dye. The more Abeta binds to the peptide, the higher the fluorescence signal is. The measured fluorescence signals of the reproductions are standardized, and the […]. This avoids binding of the fluorescence-labeled Abeta via the dye. The binding signals of an Abeta species to a peptide are then averaged. So as to determine the binding specificity, the quotient of the species to which the peptide is to specifically bind and another species is found.
(§4) Pretreatment of the peptide microarray slides: • briefly dip 3× in ethanol (96%) and then wash with H2O (30 minutes) • briefly dry by way of centrifuging
(§5) Preparation of monomers and oligomers: • size exclusion chromatography according to Johansson et al. 2006 (Johansson, A.-S. et al. Physiochemical characterization of the Alzheimer's disease-related peptides Aβ1-42Arctic and Aβ1-42 wt. FEBS Journal 273, 2618-2630 (2006)). • oligomers were fractionated at 8-9 ml, monomers at 16-17 ml.
(§6) Carrying out the peptide microarray: • incubate with FITC Abeta monomers, oligomers, fibrils and FITC for 1 hour at room temperature • wash: TBS-T briefly 3× (only TBS-T buffer is replaced), 3×10 minutes in a flacon, 3×H2O, 3×10 minutes • dry by way of centrifugation • The binding of the fluorescence-labeled Abeta to the immobilized peptides is detected by way of the fluorescent dye using the microarray reader FLA800 from Fuji Film. The more Abeta binds to the peptide, the higher is the fluorescence signal. • carrier set mode: slides • resolution: 10 μm • scan mode: high sensitivity (slow): scan pixel at 200 mm/s • laser: 473 nm • filter: 530 DF 20 • photomultiplier tube (PMT) HV (%): 100 • images were stored as .tif files
(§7) The software, AIDA Metrix, from Raytest was used to evaluate the fluorescence signals:
(§8) To ensure the reproducibility of the results, the incubation of the peptide microarrays is carried out at least three times for each species.
(§9) The measured fluorescence signals of the reproductions are standardized using a median-based standardization, and the control was subtracted from the signal. This avoided the binding of the fluorescence-labeled Abeta via the dye.
(§10) The binding signals of an Abeta species to a peptide were averaged.
So as to determine the binding specificity, the quotient of the species to which the peptide is to specifically bind and another species is created.
Example: binding specificity of peptide X to Abeta monomers=binding signal of peptides X to monomers/binding signal of peptides X to oligomers.

[4] = system: SH-SY5Y cells; experiment: MTT assay on SH-SY5Y cells with Abeta co-incubation; type: cell-based; conditions: for Reduction of the toxicity caused by Abeta: co-incubating Abeta with peptide in various concentrations, FIG. 4b; for Reduction of Abeta toxicity compared to D3: respective concentration with D3, FIG. 4b
Description: as §1, §2

[5] = biological target: T3, Abeta oligomers (Homo sapiens, UniProt P05067); experiment: QIAD method, elimination of Abeta oligomers (density gradient centrifugation, RP-HPLC); type: biochemical; conditions: for Elimination of Abeta oligomers: ratio of Abeta to peptide of 8:1, fractions 4-6, FIG. 2; for Elimination of Abeta oligomers compared to D3: ratio of Abeta to peptide of 8:1, FIG. 2
T3 sequence (P05067 672-713 limits assumed): as above
Experimental: Using the QIAD method for the quantitative characterization of amyloid peptides and/or proteins in a sample, it was possible to quantify the properties of the substances. Pre-incubated Abeta was co-incubated with the peptides. The different Abeta species were separated by way of density gradient centrifugation and quantified in the individual fractions by way of RP-HPLC Abeta. The elimination of the Abeta oligomers in fractions 4-6 was analyzed.

[6] = biological target: T1, Abeta fibrils; experiment: Peptide microarray, binding of FITC Abeta fibrils to immobilized peptides; conditions: 1 hour at room temperature, control subtracted, averaged
Experimental: as §3, §4
Preparation of fibrils: • incubate Abeta over 3 days, centrifuge, discard supernatant and resuspend in buffer (repeat 3 times)
as §6, §7, §8, §9, §10

[7] = system: transgenic AD mice; conditions: oral administration with drinking water; cited from earlier work
[8] = biological target: T3, Abeta oligomers; experiment: Peptide microarray, binding of FITC Abeta oligomers to immobilized peptides; conditions: 1 hour at room temperature, control subtracted, averaged
Experimental: as §3, §4, §5, §6, §7, §8, §9, §10

Compound | Toxic effect of the peptide alone on the cells [1] | ThT fluorescence during the entire measuring time period [2] | Binding specificity monomer to fibrils [3] | Binding specificity monomer to oligomer [3] | Reduction of the toxicity caused by Abeta [4] | Reduction of Abeta toxicity compared to D3 [4] | Elimination of Abeta oligomers [5] [%] | ThT fluorescence ([2]; after 48 hours) [rfu] | ThT fluorescence as % of the ThT fluorescence of Abeta control ([2]; after 48 hours) [%] | Elimination of Abeta oligomers compared to D3 [5] | Binding signal to Abeta fibrils [6] [rfu] | Binding specificity with respect to Abeta monomer ([3]; FIG. 1b, quotient of binding signals) | Binding signal to Abeta monomers ([3]; peptide microarray, FITC Abeta, 1 hour at room temperature, control subtracted, averaged) [rfu] | Cognitive abilities of treated transgenic AD mice [7] | Plaque in treated transgenic AD mice [7] | Binding signal to Abeta oligomers [8] [rfu]
CC[C@@H](C)[C@@H](NC(=O)[C@@H](CCCNC(=N)N)NC(=O)[C@@H](CCCCN)NC(=O)[C@H](N)CCCNC(=N)N)C(=O)N[C@H](CCCNC(=N)N)C(=O)N[C@H](CC(C)C)C(=O)N[C@@H](C(=O)N[C@H](Cc1ccc(O)cc1)C(=O)N[C@H](Cc1c[nH]cn1)C(=O)N[C@H](Cc1c[nH]c2ccccc12)C(=O)N[C@H](CC(N)=O)C(=O)N[C@H](CCCNC(=N)N)C(N)=O)C(C)C [ANK4, rkrirlvyhwnr] (H-[dR][dK][dR][dI][dR][dL][dV][dY][dH][dW][dN][dR]-NH2) | do not have a toxic effect | slight increase | 4.3 | 3.3 | reduced; also recorded: reduction in the Abeta toxicity was achieved | more efficient | 59±16 | – | – | – | – | – | – | – | – | –
CC(C)C[C@@H](NC(=O)[C@@H](CCCNC(=N)N)NC(=O)[C@H](NC(=O)[C@@H](CCCNC(=N)N)NC(=O)[C@@H](CCCCN)NC(=O)[C@H](N)CCCNC(=N)N)C(C)C)C(=O)N[C@@H](C(=O)N[C@H](Cc1ccc(O)cc1)C(=O)N[C@H](Cc1c[nH]cn1)C(=O)N[C@H](CCCCN)C(=O)N[C@H](CCCCN)C(=O)N[C@H](CCCNC(=N)N)C(N)=O)C(C)C [ANK5, rkrvrlvyhkkr] (H-[dR][dK][dR][dV][dR][dL][dV][dY][dH][dK][dK][dR]-NH2) | do not have a toxic effect | – | 2.2 | 5.9 | reduced; also recorded: reduction in the Abeta toxicity was achieved | – | 72±2 | 1029 | 53 | significantly more efficiently than D3 | – | – | – | – | – | –
CC[C@@H](C)[C@@H](NC(=O)[C@@H](CCCNC(=N)N)NC(=O)[C@@H](CCCCN)NC(=O)[C@H](N)CCCNC(=N)N)C(=O)N[C@H](CCCNC(=N)N)C(=O)N[C@H](CC(C)C)C(=O)N[C@@H](C(=O)N[C@@H](C(=O)N[C@H](CCCCN)C(=O)N[C@H](CCCCN)C(=O)N[C@H](CCCCN)C(=O)N[C@H](CCCNC(=N)N)C(N)=O)[C@H](C)O)C(C)C [ANK6, rkrirlvtkkkr] (H-[dR][dK][dR][dI][dR][dL][dV][dT][dK][dK][dK][dR]-NH2) | do not have a toxic effect | slight increase | 1.9 | 4.1 | reduced; also recorded: reduction in the Abeta toxicity was achieved | more efficient | 81±3 | – | – | significantly more efficiently than D3 | – | – | – | – | – | –
CC[C@@H](C)[C@@H](NC(=O)[C@@H](Cc1c[nH]cn1)NC(=O)[C@H](NC(=O)[C@@H](Cc1ccc(F)cc1)NC(=O)[C@@H](CC(C)C)NC(=O)[C@@H](CCCNC(=N)N)NC(=O)[C@H](NC(=O)[C@@H](CCCNC(=N)N)NC(=O)[C@@H](CCCCN)NC(=O)[C@H](N)CCCNC(=N)N)C(C)C)[C@H](C)O)C(=O)N[C@H](CCCCN)C(=O)N[C@H](CCCNC(=N)N)C(N)=O [ANK7, rkrvrl02thikr] (H-[dR][dK][dR][dV][dR][dL][dPhe(4-F)][dT][dH][dI][dK][dR]-NH2) | do not have a toxic effect | slight increase | 6.8 | 6.4 | reduced; also recorded: reduction in the Abeta toxicity was achieved | – | 73±1 | – | – | significantly more efficiently than D3 | – | – | – | – | – | –
rprtrlhthrnr [D3, reference compound] | – | – | 0.6 | 0.8 | – | – | 50±10 | – | – | – | 0.8 | less than 1 | 0.5 | significantly improved cognitive abilities | considerably less plaque | 0.6
